From patent publication US20220323494A1, “Novel Control Switch” (GlaxoSmithKline Intellectual Property Development Limited, priority 2018, published 2022)

Key:
[1] = tested on: NFAT promoter in Jurkat cells; test: NFAT-luciferase assay in Jurkat cells transfected with CAR constructs, co-cultured with ARH-77-10B5 cells; assay type: cell-based; conditions: 3 μM BI224436, 48 hours
Protocol: NFAT-luc2 Jurkat cells (Promega) were cultured in Jurkat media: RPMI medium 1640 (1×) without L-glutamine with phenol red (Gibco), 10% (v/v) Fetal Bovine Serum (FBS) Heat-Inactivated (Gibco), 1% (v/v) Minimum essential medium non-essential amino acids (MEM NEAA) (ThermoFisher), 1% (v/v) Sodium Pyruvate (Sigma), 1% (v/v) L-Glutamine (Gibco). ARH-77-10B5 cells were cultured in Jurkat media plus 1 mg/mL G418 (Thermo, 10131035). Cells were incubated at 37° C. with 5% CO2 for 48 hours. 20 μg of plasmid DNA from each construct was mixed with 8×10^6 NFAT-luc2 Jurkat cells and cells were transfected using the 4D-Nucleofector (Lonza) with cell Line SE Nucleofector kit (Lonza) by following manufacturer instructions with program CL-120. BI224436 compound (Chemexpress HY-18595) at a stock concentration of 100 mM in 100% DMSO (Sigma, D2650) was diluted in Jurkat media to achieve a stock concentration of 100 μM. Using the 100 μM BI224436 stock in Jurkat media, NFAT-luc2 Jurkat cells were incubated at a final compound concentration of 3 μM for 48 hours at 37° C. with 5% CO2. NFAT-luc2 Jurkat cells were then co-cultured (1×10^5 cells per well, 1:1 effector:target ratio) with ARH-77-10B5 cells (BCMA positive cells) for 6.5 hours. NFAT-luciferase luminescence was measured by using the Bio-Glo Luciferase Assay System (Promega G7940) (following manufacturer's instructions) and an EnSpire Multimode Plate Reader (Perkin Elmer).

[2] = tested on: primary T-cells transduced with the HIV Integrase LEDGF/p75 OFF-CAR; test: Cytokine release by primary T-cells transduced with OFF-switch CAR (Example 5); assay type: cell-based, human; conditions: T-cells transduced with Construct 10 and 11; 10 μM, ARH-77-10B5, 24 hour
Protocol: Primary T-cell transduction and cytokine release: Peripheral blood mononuclear cells (PBMCs) from the fresh blood of two healthy human donors were isolated by density gradient centrifugation in Accuspin tubes (Sigma) containing 15 mL of Histopaque-1077 (Sigma) and following manufacturer's instructions. Cells were resuspended at 1×10^6 cells/mL in TEXMacs media (Miltenyi Biotec) containing 100 units/mL of IL-2 (Sigma) and TransAct beads (Miltenyi Biotec) and incubated for 48 hours at 37° C. with 5% CO2.
T-cells from the two donors were transduced with the lentiviral vectors encoding for CONSTRUCT 10 and CONSTRUCT 11. Transduction reactions were prepared to achieve an MOI of 5. T-cells were cultured in TEXMacs media (Miltentyi Biotec) with 100 units/mL of IL-2, fresh media was added every 3 days. ARH-77-10B5 cells were cultured as described in Example 1. BI224436 compound at a stock concentration of 100 mM in 100% DMSO was diluted in Jurkat media to achieve a stock concentration of 100 μM. Each T-cell population was incubated at a final concentration of 10 μM or 0 μM (media alone) BI224436 in Jurkat media for 1 hour at 37° C. with 5% CO2. […] Supernatants were analysed for cytokine levels using MSD V-plex Proinflammatory Panel 1 Human Kit (MSD, K15049D-2) and MSD Sector Imager (MSD).

[3] = tested on: primary T-cells transduced with the HIV Integrase LEDGF/p75 OFF-switch CAR; test: Cytokine release with titration of BI224436, primary T-cells transduced with Construct 13 (Example 6); assay type: cell-based, human
Protocol: Lentiviral vector production and transduction of primary T-cells: Method for lentiviral production is described in Example 4 and method for primary T-cell transduction is described in Example 5.
Cytokine release: ARH-77-10B5 cells were cultured as described in Example 1. BI224436 compound at a stock concentration of 100 mM in 100% DMSO was diluted in Jurkat media to achieve a stock concentration of 100 μM. Each T-cell population was incubated at a final concentration of 10 μM, 3.3 μM, 1.1 μM, 0.37 μM, 0.12 μM, 0.04 μM, 0.013 μM, 0.004 μM, 0.001 μM or 0 μM (media alone) BI224436 in Jurkat media for 1 hour at 37° C. with 5% CO2. T-cells were then co-cultured (5×10^4 cells per well, 1:1 effector:target ratio) with ARH-77-10B5 cells (BCMA positive cells) for 24 hours in Jurkat media at 37° C. with 5% CO2. Cells were pelleted (1200 rpm, 5 min) and supernatants were collected. Supernatants were analysed for cytokine levels using MSD V-plex Proinflammatory Panel 1 Human Kit (MSD, K15049D-2) and MSD Sector Imager (MSD).

[4] = tested on: ARH-77-10B5 cells; test: xCelligence cytotoxicity assay; assay type: cell-based; conditions: T-cells transduced with Construct 10; 10 μM BI224436
Protocol: Transduction of primary T-cells: Method described in Example 5
xCelligence cytotoxicity assay ARH-77-10B5 cells were as described in Example 1. BI224436 compound at a stock concentration of 100 mM in 100% DMSO was diluted in Jurkat media to achieve a stock concentration of 100 μM. xCelligence E-plates (ACEA, 06472460001) were coated with anti-CD40 tethering agent by following manufacturer's instructions for B-cell Killing (anti-CD40) Assay kit (ACEA, 8100004). Plates were inserted into the xCelligence station (ACEA) (37° C., 5% CO2) and allowed to equilibrate to 37° C. for 1 hour prior to taking background measurement. ARH-77-10B5 cells or Jurkat media were added to the plates (1×10^4 cells per well) and cultured for 20 h. Each T-cell population was incubated at a final concentration of 10 μM or 0 μM BI224436 in Jurkat media for 1 hour at 37° C. with 5% CO2. T-cells were added to the plates (1×10^4 cells per well, 1:1 effector:target ratio) and incubated in the xCelligence station for 24 hours. Data analysis was carried out using xCELLigence Immunotherapy Software (ACEA). The cell index for samples was normalized to the point of T-cell addition, then the normalized cell index for T-cells was divided by the normalized cell index of target cells alone to give the % viable cells at a given timepoint.

[5] = tested on: K562 BCMA cells; test: Flow cytometry cytotoxicity assay, BCMA-positive target cells; assay type: cell-based; conditions: for Effect of BI224436 on cytotoxicity: 10 μM BI224436
Protocol: (§1) Isolation and transduction of CD4+ and CD8+ T-cells: Peripheral blood mononuclear cells (PBMCs) from the fresh blood of one healthy human donor was isolated by density gradient centrifugation in Accuspin tubes (Sigma) containing 15 mL of Histopaque-1077 (Sigma) and following manufacturer's instructions. CD4+ and CD8+ T cells were isolated using CD4 and CD8 microbeads (Miltenyi Biotec) and the AutoMACS Pro-separator (Miltenyi Biotec). Cells were resuspended at 1×10^6 cells/mL in TEXMacs media (Miltenyi Biotec) containing 100 units/mL of IL-7 (Sigma), 100 units/mL of IL-15 (Sigma) and TransAct beads (Miltenyi Biotec) and incubated for 48 hours at 37° C. with 5% CO2.
T-cells were transduced with lentiviral vectors encoding for CONSTRUCT 14 or CONSTRUCT 10. Transduced T-cells and untransduced (UT) T-cells were cultured in TEXMacs media (Miltenyi Biotec) with 100 units/mL of IL-7 (Sigma) and IL-15 (Sigma), and fresh media was added every 3 days. […] 1×10^5 of each T-cell population was stained with AlexaFluor 647 conjugated BCMA-Fc (generated in-house) to label theanti-BCMA scFv on the CARs. Measurements were made using a Cytoflex S (Beckman Coulter) and data analysed using FlowJo (FlowJo).
K562 BCMA cells (BCMA positive) were cultured in Jurkat media plus 0.8 mg/mL G418 (Gibco) and K562 cells (BCMA negative) were cultured in Jurkat media. Both cell lines were cultured at 37° C. with 5% CO2. BI224436 compound at a stock concentration of 100 mM in 100% DMSO (Sigma) was diluted in Jurkat media to achieve a stock concentration of 100 μM. K562 cells were stained with Cell Trace Far Red (0.5 μM, ThermoFisher) and K562 BCMA cells were stained with Cell Trace Violet (2.5 μM, ThermoFisher). […] 50 μL of each well was analysed on a Cytoflex S (Beckman Coulter) and data was analysed using FlowJo (FlowJo). The percentage of surviving K562 and K562 BCMA cells was calculated by dividing the number of K562 and K562 BCMA cells in each condition by the number of K562 and K562 BCMA cells found following co-culture with UT T-cells in 0 μM BI224436.

[6] = Plasma concentration of BI224436 in human subjects (clinical trial NCT01276990); assay type: in vivo; conditions: plasma 24 hours after 200 mg oral doses; IC50 is lower
[7] = tested on: K562 cells (BCMA negative); test: Flow cytometry cytotoxicity assay, BCMA-negative target cells; assay type: cell-based; conditions: transduced primary T-cells, K562 WT, 1:1 or 4:1 effector:target, 48 hours
Protocol: as §1
T-cells were transduced with lentiviral vectors encoding for CONSTRUCT 14 or CONSTRUCT 10. […] Measurements were made using a Cytoflex S (Beckman Coulter) and data analysed using FlowJo (FlowJo).
K562 BCMA cells (BCMA positive) were cultured in Jurkat media plus 0.8 mg/mL G418 (Gibco) and K562 cells (BCMA negative) were cultured in Jurkat media. […] 50 μL of each well was analysed on a Cytoflex S (Beckman Coulter) and data was analysed using FlowJo (FlowJo). The percentage of surviving K562 and K562 BCMA cells was calculated by dividing the number of K562 and K562 BCMA cells in each condition by the number of K562 and K562 BCMA cells found following co-culture with UT T-cells in 0 μM BI224436.

| Molecule | Effect of BI224436 on NFAT activation ([1]; Jurkat cells transfected with Construct 6) | Effect of BI224436 on NFAT activation ([1]; Jurkat cells transfected with Construct 7) | Effect of BI224436 on NFAT activation ([1]; Jurkat cells transfected with Constructs 1 to 4) | Effect of compound on cytokine release [2] | IC50 ([3]; Homo sapiens, T-cell, primary T-cells transduced with Construct 13, stimulated with ARH-77-10B5, 24 hours, read-out: IC50 concentration for cytokine release (TNF-alpha, IL-2, IFN-gamma)) | Effect of BI224436 concentration on level of TNF-alpha, IL-2 and IFN-gamma release ([3]; primary T-cells transduced with Construct 13, 0.001-10 μM titration) | Effect of BI224436 on cytotoxic response [4] | Effect of BI224436 on cytotoxicity ([5]; T-cells transduced with OFF-switch CAR (Construct 10)) | Effect of BI224436 on cytotoxicity ([5]; T-cells transduced with conventional CAR (Construct 14)) | IC50 concentration relative to plasma concentrations in human subjects [6] | Killing of BCMA-positive cells ([5]; transduced primary T-cells, K562 BCMA, 1:1 or 4:1 effector:target, 48 hours) | Killing of BCMA-negative cells [7] |
| --- | --- | --- | --- | --- | --- | --- | --- | --- | --- | --- | --- | --- |
| Cc1nc2ccccc2c(-c2ccc3c4c(ccnc24)CCO3)c1[C@H](OC(C)(C)C)C(=O)O [BI224436, 3-Quinolineacetic acid, 4-(2,3-dihydropyrano[4,3,2-de]quinolin-7-yl)-α-(1,1-dimethylethoxy)-2-methyl-,(αS,4R)-] | preserved | preserved | does not reduce the level of activation | attenuated | 100 nM | tunes the level | reduced | effectively attenuates | does not affect | 10 fold |  |  |
| Construct 14: conventional single chain CAR (SEQ ID NO: 52) that uses components from CONSTRUCT 10 (protein, Construct 14 amino acid sequence) MALPVTALLLPLALLLHAARPQVQLVQSGAEVKKPGSSVKVSCKGSGYTFTNYWMHWVRQAPGQGLEWIGATYRGHSDTYYNQKFKGRATLTADTSTSTAYMELSSLRSEDTAVYYCTRGAIYDGYDVLDNWGQGTLVTVSSGGGGSGGGGSGGGGSGGGGSDIQMTQSPSSLSASVGDRVTITCSASQDISNYLNWYQQKPGKAPKLLIYYTSNLHSGVPSRFSGSGSGTDFTLTISSLQPEDFATYYCQQYRKLPWTFGQGTKLEIKRFVPVFLPAKPTTTPAPRPPTPAPTIASQPLSLRPEACRPAAGGAVHTRGLDFACDIYIWAPLAGTCGVLLLSLVITLYCNHRNKRGRKKLLYIFKQPFMRPVQTTQEEDGCSCRFPEEEEGGCELRVKFSRSADAPAYQQGQNQLYNELNLGRREEYDVLDKRRGRDPEMGGKPRRKNPQEGLYNELQKDKMAEAYSEIGMKGERRRGKGHDGLYQGLSTATKDTYDALHMQALPPR |  |  |  |  |  |  |  |  |  |  | kill BCMA-positive cells | not BCMA-negative cells |
